# Test results reported in patent US6528522B2, “Substituted imidazoles as dual histamine H1 and H3 agonists or antagonists” (Schering Corporation, priority 2000, dated 2003).
# Assays:
# H3 receptors = biological target: T1, H3 receptors (Cavia porcellus, UniProt Q9JI35); assay: H3-Receptor Binding Assay (guinea pig brain membranes, [3H]R-α-methyl histamine or [3H]Nα-methyl histamine); settings: HCl salt of the indicated compound, read-out: H3 Ave Ki
# T1 construct: The source of the H3 receptors in this experiment was guinea pig brain; from tissue; host or cells: guinea pig brain membranes
# Description: General Procedure for H3—Receptor Binding Assay
# The source of the H3 receptors in this experiment was guinea pig brain. The animals weighed 400-600 g. The brain tissue was homogenized with a solution of 50 mM Tris, pH 7.5. The final concentration of tissue in the homogenization buffer was 10% w/v. The homogenates were centrifuged at 1,000×g for 10 min. in order to remove clumps of tissue and debris. The resulting supernatants were then centrifuged at 50,000×g for 20 min. in order to sediment the membranes, which were next washed three times in homogenization buffer (50,000×g for 20 min. each). The membranes were frozen and stored at −70° C. until needed.
# All compounds to be tested were dissolved in DMSO and then diluted into the binding buffer (50 mM Tris, pH 7.5) such that the final concentration was 2 μg/ml with 0.1% DMSO. Membranes were then added (400 μg of protein) to the reaction tubes. The reaction was started by the addition of 3 nM [^3H]R-α-methyl histamine (8.8 Ci/mmol) or 3 nM [^3H]N^α-methyl histamine (80 Ci/mmol) and continued under incubation at 30° C. for 30 min. Bound ligand was separated from unbound ligand by filtration, and the amount of radioactive ligand bound to the membranes was quantitated by liquid scintillation spectrometry. All incubations were performed in duplicate and the standard error was always less than 10%. Compounds that inhibited more than 70% of the specific binding of radioactive ligand to the receptor were serially diluted to determine a Ki (nM). The results are given in the Table 1 for the HCl salt of the indicated compound.
# histamine H1 receptor = biological target: T2, histamine H1 receptor (Rattus norvegicus, UniProt P31390); assay: H1-Receptor Binding Assay (rat brain membranes, [3H]pyrilamine); settings: male Sprague-Dawley rat brain membranes, Ki by Cheng-Prusoff, HCl salt of the indicated compound, read-out: H1 Ave Ki
# T2 construct: The tissue source was male Sprague-Dawley rat brain; tissue Rockland Corporation, Gilbertsville, Pa; host or cells: male Sprague-Dawley rat brain membranes
# From the text: General Procedure for H1.—Receptor Binding Assay: The procedure used was based on that disclosed in V. T. Tran et al, “Histamine H1 receptors identified in mammalian brain membranes with [H-3]mepyramine”, Proc. Natl. Acad. Sci. U.S.A. 75 (1978) 6290-6294.
# I. Tissue preparation protocol for histamine H1 receptor binding assay:
# 1. The tissue source was male Sprague-Dawley rat brain. These were purchased stripped and frozen (available from Rockland Corporation, Gilbertsville, Pa.). The buffer used was ice-cold 50 mM Tris-HCl, pH 7.5. (The pH was determined at 25° C.)
# 2. The brains were spread out on plastic wrap on the benchtop and allowed to thaw for 10-15 min. After this, everything was kept ice-cold.
# 3. Two brains were put in each 50 ml round bottom centrifuge tube and 25 ml of buffer was added. Then they were broken up with a Polytron (from Brinkmann Instruments, Westbury, N.Y.) equipped with a PT-10 tip at setting 6 for 30 sec.
# 4. The volume in the tube was brought up to 45 ml and mixed and the particulate material was centrifuged at 1000×g (3000 rpm, SS-34 rotor) for 10 min to remove nuclei and unbroken cells.
# 5. Pellets were discarded and the supernatants were centrifuged 10 min at 50,000×g (20,000 rpm, SS-34 rotor).
# 6. The high-speed pellets were resuspended in a volume of Tris buffer equal to the original (4 ml), the contents of all tubes were pooled, and a sample was taken for BCA protein assay . The material was aliquotted, 45 ml per round-bottom tube, and the resuspension was recentrifuged. The yield of protein was approximately 20 mg/brain, so there was about 40 mg of protein per tube.
# 7 . Pellets were frozen at −80° C.
# II. H1 Histamine receptor binding assay:
# 1. FDCL and comparative compounds for assay were independently solubilized at 1 mg/ml DMSO by vortexing, or if necessary by sonication. The first dilution, 100-fold, was made in 50 mM Tris-HCl, pH 7.5, at room temperature. The three or four subsequent ten-fold serial dilutions were made in 1% DMSO/50 mM Tris-HCl, pH 7.5. Drug solutions and assay plates were kept at room temperature during the course of the assay set up.
# 2. Test compounds were assayed at four or five concentrations: 1, 0.1, 0.01, 0.001, and 0.0001 μg/ml. Twenty μl of drug solution was pipeted into each of three wells.
# 3. [^3H]Pyrilamine was diluted approximately 2000-fold with ice-cold […] Tris-HCl, pH 7.5 (to a working concentration of 20-25 nM), and put on ice.
# 4. A frozen tissue pellet was thawed in a 25° C. water bath, resuspended in 50 mM Tris-HCl, pH 7.5, at 1.7-2 mg/ml by brief break-up on the Polytron, and put on ice.
# 5. Twenty μl of diluted [^3H]pyrilamine was added to each well.
# 6. One hundred fifty μl of tissue suspension was added to each well.
# 7. The top of the plate was covered and it was placed in a 25° C. shaking water bath (about 60 oscillations/min) for 30 min..
# 8. Samples were filtered on a Tomtec Mach 2 harvester (available from Tomtec Corporation, Orange, Conn.) through a GF/B filter mat (from Wallac, Inc., Gaithersburg, Md.) presoaked in 0.3% polyethylenimine. Each sample was thrice washed with ice-cold 50 mM Tris-HCl, pH 7.5 dried 20 sec on the Tomtec, and dried 3-4 min in a microwave oven on a paper towel. The filter was impregnated with MELTILEX brand wax scintillant (from Wallac Corporation) and counted on a Betaplate scintillation counter (from Wallac Corporation).
# 9. Specific binding was determined as the difference between total and nonspecific binding. […]
# T2 sequence (P31390 whole entry): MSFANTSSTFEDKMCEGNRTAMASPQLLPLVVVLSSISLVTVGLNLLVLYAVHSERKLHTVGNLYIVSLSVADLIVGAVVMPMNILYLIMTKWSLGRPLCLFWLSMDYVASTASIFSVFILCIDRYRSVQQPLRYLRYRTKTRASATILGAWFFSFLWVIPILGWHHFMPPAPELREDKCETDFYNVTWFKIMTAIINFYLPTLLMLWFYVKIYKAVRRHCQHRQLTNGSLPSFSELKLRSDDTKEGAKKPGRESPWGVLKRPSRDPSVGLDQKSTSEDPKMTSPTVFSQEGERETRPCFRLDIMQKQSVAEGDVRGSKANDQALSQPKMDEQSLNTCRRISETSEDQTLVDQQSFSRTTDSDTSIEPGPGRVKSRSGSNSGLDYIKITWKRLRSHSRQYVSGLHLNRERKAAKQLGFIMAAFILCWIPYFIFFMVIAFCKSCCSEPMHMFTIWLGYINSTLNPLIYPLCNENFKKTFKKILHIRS
# T1 sequence (Q9JI35 whole entry): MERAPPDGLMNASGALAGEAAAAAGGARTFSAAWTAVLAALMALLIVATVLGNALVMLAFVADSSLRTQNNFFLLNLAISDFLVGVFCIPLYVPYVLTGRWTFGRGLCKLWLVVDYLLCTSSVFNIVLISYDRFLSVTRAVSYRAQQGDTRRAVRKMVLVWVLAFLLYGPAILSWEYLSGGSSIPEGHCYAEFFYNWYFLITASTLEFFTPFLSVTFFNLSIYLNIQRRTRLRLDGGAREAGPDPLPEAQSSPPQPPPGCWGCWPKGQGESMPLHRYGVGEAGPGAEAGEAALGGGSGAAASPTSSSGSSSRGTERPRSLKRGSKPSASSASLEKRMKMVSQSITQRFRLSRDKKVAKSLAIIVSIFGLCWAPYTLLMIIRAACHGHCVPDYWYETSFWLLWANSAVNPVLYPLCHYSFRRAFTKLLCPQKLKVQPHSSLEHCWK
Structure (SMILES),Ki (H3 receptors) [µM],Ki (histamine H1 receptor) [µM]
Clc1ccc2c(c1)CCc1cccnc1C2CCNCCCCCc1c[nH]cn1 (centres unmarked),0.007,–
Clc1ccc2c(c1)CCc1cccnc1C2CCNCCCc1c[nH]cn1 (centres unmarked),0.037,0.04
Clc1ccc2c(c1)CCc1cccnc1C2CCNCCCCc1c[nH]cn1 (centres unmarked),0.0075,–
Clc1ccc2c(c1)CCc1cccnc1C2CCN(CCCCc1c[nH]cn1)CCCCc1c[nH]cn1 (centres unmarked),0.009,–
Clc1ccc2c(c1)CCc1cccnc1C2NCCc1c[nH]cn1 (centres unmarked),0.07,0.144
Clc1ccc2c(c1)CCc1cccnc1C2NCCCCc1c[nH]cn1 (centres unmarked),0.029,0.041
Clc1ccc2c(c1)CCc1cccnc1C2NCCCCCc1c[nH]cn1 (centres unmarked),0.0075,0.502
Clc1ccc2c(c1)CCc1cccnc1C2CCN(CCCc1c[nH]cn1)CCCc1c[nH]cn1 (centres unmarked),0.025,0.571
Clc1ccc2c(c1)CCc1cccnc1C2CCN(CCCCCc1c[nH]cn1)CCCCCc1cnc[nH]1 (centres unmarked),0.026,–
